PubChem BioAssay (NCI)
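Five concentrations, 48 hours, 96-well plates. GI50 = concentration required for 50% inhibition of growth. TGI: concentration producing complete growth inhibition.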

Tests used:
Assay in all cases: NCI tumour cell line growth inhibition, 48 h
HL-60(TB) leukemia = test system: HL-60(TB) leukemia
ACHN renal = test system: ACHN renal
SN12C renal = test system: SN12C renal
UACC-257 melanoma = test system: UACC-257 melanoma
SF-295 CNS = test system: SF-295 CNS
MCF7 breast = test system: MCF7 breast
HS 578T breast = test system: HS 578T breast
OVCAR-5 ovarian = test system: OVCAR-5 ovarian
OVCAR-3 ovarian = test system: OVCAR-3 ovarian
UO-31 renal = test system: UO-31 renal
K-562 leukemia = test system: K-562 leukemia
MDA-MB-435 = test system: MDA-MB-435
CCRF-CEM leukemia = test system: CCRF-CEM leukemia
MDA-MB-231 breast = test system: MDA-MB-231 breast
TK-10 renal = test system: TK-10 renal
SW-620 colon = test system: SW-620 colon
BT-549 breast = test system: BT-549 breast
NCI-H226 lung = test system: NCI-H226 lung
EKVX NSCLC = test system: EKVX NSCLC
SF-539 CNS = test system: SF-539 CNS
RPMI-8226 leukemia = test system: RPMI-8226 leukemia
NCI-H23 lung = test system: NCI-H23 lung
COLO 205 colon = test system: COLO 205 colon
786-0 renal = test system: 786-0 renal
SK-MEL-5 melanoma = test system: SK-MEL-5 melanoma
SF-268 CNS = test system: SF-268 CNS
PC-3 prostate = test system: PC-3 prostate
HCT-116 colon = test system: HCT-116 colon
M14 melanoma = test system: M14 melanoma
U251 CNS = test system: U251 CNS
SR leukemia = test system: SR leukemia
NCI-H522 lung = test system: NCI-H522 lung
SNB-19 CNS = test system: SNB-19 CNS
T-47D breast = test system: T-47D breast
SK-MEL-28 melanoma = test system: SK-MEL-28 melanoma
SK-OV-3 ovarian = test system: SK-OV-3 ovarian
IGROV1 ovarian = test system: IGROV1 ovarian
OVCAR-8 ovarian = test system: OVCAR-8 ovarian
HCC-2998 colon = test system: HCC-2998 colon
MALME-3M melanoma = test system: MALME-3M melanoma
UACC-62 melanoma = test system: UACC-62 melanoma
HOP-62 NSCLC = test system: HOP-62 NSCLC
RXF 393 renal = test system: RXF 393 renal
DU-145 prostate = test system: DU-145 prostate
NCI-H460 lung = test system: NCI-H460 lung
KM12 colon = test system: KM12 colon
SNB-75 CNS = test system: SNB-75 CNS
LOX IMVI melanoma = test system: LOX IMVI melanoma
SK-MEL-2 melanoma = test system: SK-MEL-2 melanoma
A549 NSCLC = test system: A549 NSCLC
NCI/ADR-RES ovarian = test system: NCI/ADR-RES ovarian
HOP-92 NSCLC = test system: HOP-92 NSCLC
CAKI-1 renal = test system: CAKI-1 renal
A498 renal = test system: A498 renal
OVCAR-4 ovarian = test system: OVCAR-4 ovarian
HCT-15 colon = test system: HCT-15 colon

`Oc1c(Cl)cc(Cl)c2ccc(Cn3cc(-c4cc(F)cc(F)c4)nn3)nc12` was tested, and the GI50 (HL-60(TB) leukemia) was 2.08 µM, the TGI (HL-60(TB) leukemia) was 5.78 µM and the GI50 (ACHN renal) was 1.73 µM. It also gave a TGI (ACHN renal) of 3.14 µM, a GI50 (SN12C renal) of 4.21 µM and a TGI (SN12C renal) of 16.2 µM. It also gave a GI50 (UACC-257 melanoma) of 1.76 µM, a TGI (UACC-257 melanoma) of 4.83 µM and a GI50 (SF-295 CNS) of 17.8 µM. It also gave a TGI (SF-295 CNS) of 32.9 µM, a GI50 (MCF7 breast) of 1.54 µM and a TGI (MCF7 breast) of 3.62 µM. For the same compound, the GI50 (HS 578T breast) was 3.22 µM, the TGI (HS 578T breast) was 20 µM and the GI50 (OVCAR-5 ovarian) was 4.01 µM. It also gave a TGI (OVCAR-5 ovarian) of 15.4 µM, a GI50 (OVCAR-3 ovarian) of 1.66 µM and a TGI (OVCAR-3 ovarian) of 3.2 µM. The GI50 (UO-31 renal) was 2.06 µM, the TGI (UO-31 renal) was 9.93 µM and the GI50 (K-562 leukemia) was 1.09 µM. The TGI (K-562 leukemia) was greater than 100 µM, the GI50 (MDA-MB-435) was 2.8 µM and the TGI (MDA-MB-435) was 8.47 µM. The GI50 (CCRF-CEM leukemia) was 0.832 µM, the TGI (CCRF-CEM leukemia) was greater than 100 µM and the GI50 (MDA-MB-231 breast) was 2.71 µM. It also gave a TGI (MDA-MB-231 breast) of 8.65 µM, a GI50 (TK-10 renal) of 2.1 µM and a TGI (TK-10 renal) of 4.23 µM. The GI50 (SW-620 colon) was 1.49 µM, the TGI (SW-620 colon) was 3.35 µM and the GI50 (BT-549 breast) was 2.51 µM. For the same compound, the TGI (BT-549 breast) was 9.49 µM, the GI50 (NCI-H226 lung) was 10 µM and the TGI (NCI-H226 lung) was 29 µM. The GI50 (EKVX NSCLC) was 11.7 µM, the TGI (EKVX NSCLC) was 25.5 µM and the GI50 (SF-539 CNS) was 1.63 µM. The TGI (SF-539 CNS) was 3.08 µM, the GI50 (RPMI-8226 leukemia) was 2.19 µM and the TGI (RPMI-8226 leukemia) was 6.36 µM. It also gave a GI50 (NCI-H23 lung) of 3.5 µM, a TGI (NCI-H23 lung) of 12.8 µM and a GI50 (COLO 205 colon) of 2.06 µM. For the same compound, the TGI (COLO 205 colon) was 4.04 µM, the GI50 (786-0 renal) was 2.09 µM and the TGI (786-0 renal) was 4.84 µM. It also gave a GI50 (SK-MEL-5 melanoma) of 4.1 µM, a TGI (SK-MEL-5 melanoma) of 14.9 µM and a GI50 (SF-268 CNS) of 11.3 µM. It also gave a TGI (SF-268 CNS) of 30.3 µM, a GI50 (PC-3 prostate) of 5.26 µM and a TGI (PC-3 prostate) of 18.8 µM. The GI50 (HCT-116 colon) was 1.61 µM, the TGI (HCT-116 colon) was 3.53 µM and the GI50 (M14 melanoma) was 2.02 µM. The TGI (M14 melanoma) was 4.92 µM, the GI50 (U251 CNS) was 7.38 µM and the TGI (U251 CNS) was 21.2 µM. It also gave a GI50 (SR leukemia) of 2.87 µM, a TGI (SR leukemia) greater than 100 µM and a GI50 (NCI-H522 lung) of 1.72 µM. The TGI (NCI-H522 lung) was 4.83 µM, the GI50 (SNB-19 CNS) was 11.9 µM and the TGI (SNB-19 CNS) was 25.1 µM. It also gave a GI50 (T-47D breast) of 2.27 µM, a TGI (T-47D breast) of 7.17 µM and a GI50 (SK-MEL-28 melanoma) of 2.01 µM. It also gave a TGI (SK-MEL-28 melanoma) of 4.18 µM, a GI50 (SK-OV-3 ovarian) of 17 µM and a TGI (SK-OV-3 ovarian) of 31.9 µM. The GI50 (IGROV1 ovarian) was 1.82 µM, the TGI (IGROV1 ovarian) was 4.18 µM and the GI50 (OVCAR-8 ovarian) was 3.42 µM. For the same compound, the TGI (OVCAR-8 ovarian) was 27.2 µM, the GI50 (HCC-2998 colon) was 13.3 µM and the TGI (HCC-2998 colon) was 29.1 µM. It also gave a GI50 (MALME-3M melanoma) of 1.84 µM, a TGI (MALME-3M melanoma) of 3.74 µM and a GI50 (UACC-62 melanoma) of 3.39 µM. For the same compound, the TGI (UACC-62 melanoma) was 14.4 µM, the GI50 (HOP-62 NSCLC) was 17.4 µM and the TGI (HOP-62 NSCLC) was 34.9 µM. The GI50 (RXF 393 renal) was 1.36 µM, the TGI (RXF 393 renal) was 2.99 µM and the GI50 (DU-145 prostate) was 2.14 µM. For the same compound, the TGI (DU-145 prostate) was 4.6 µM, the GI50 (NCI-H460 lung) was 18.8 µM and the TGI (NCI-H460 lung) was 35.8 µM. It also gave a GI50 (KM12 colon) of 16.3 µM, a TGI (KM12 colon) of 32.1 µM and a GI50 (SNB-75 CNS) of 2.07 µM. The TGI (SNB-75 CNS) was 11.8 µM, the GI50 (LOX IMVI melanoma) was 1.31 µM and the TGI (LOX IMVI melanoma) was 2.68 µM. The GI50 (SK-MEL-2 melanoma) was 5.19 µM, the TGI (SK-MEL-2 melanoma) was 20.2 µM and the GI50 (A549 NSCLC) was 18.8 µM. The TGI (A549 NSCLC) was 38.4 µM, the GI50 (NCI/ADR-RES ovarian) was 24.1 µM and the TGI (NCI/ADR-RES ovarian) was 85.3 µM. For the same compound, the GI50 (HOP-92 NSCLC) was 1.63 µM, the TGI (HOP-92 NSCLC) was 4.37 µM and the GI50 (CAKI-1 renal) was 1.78 µM. For the same compound, the TGI (CAKI-1 renal) was 4 µM, the GI50 (A498 renal) was 5.78 µM and the TGI (A498 renal) was 19.6 µM. The GI50 (OVCAR-4 ovarian) was 1.87 µM, the TGI (OVCAR-4 ovarian) was 4.43 µM and the GI50 (HCT-15 colon) was 2.21 µM. It also gave a TGI (HCT-15 colon) of 5.42 µM.
